Test results published in patent US20120014911A1, “Regulators of the Interferon-Alpha Receptor 1 (IFNAR1) Chain of the Interferon Receptor” (priority 2009, published 2012).
Where a name gives a salt, the structure may show the parent alone. Read-outs that look alike come from different tables or passages of the source.

How the values were obtained:
[1] = system: ligand-inducible IFNAR1 degron kinase activity; assay: Phosphorylation-binding assay: GST-IFNAR1 phosphorylated by CK1α-depleted lysates of IFN-α-treated cells, then binding of 35S-labeled β-Trcp2; assay type: biochemical, human; conditions: inhibitor added in vitro: H89 200 nM, BAY43-9006 50 nM, Bis-I 25 nM, Gö6976 25 nM, LY294002 1.5 μM, SP600125 100 nM, D4476 400 nM, SB203580 100 nM
Procedure: For some binding assays, the lysates from 293T cells (treated for various tunes with IFN-α, 2000 IU/mL) were depleted of CK1α (as described previously (Liu, et al., 2009, Mal Cell Biol 29(24):6401-12) were incubated with GST-IFNAR1 proteins (wild type or S535,539A mutant that migrates slower on SDS-PAGE due to the presence of four additional amino acids in the linker), ATP and kinase inhibitors (as indicated) for 30 min at 30° C. After that, GST-IFNAR1 were purified and incubated with in vitro translated and 35S-methionine-labeled 3-Trcp2 for 1 h at 4° C.; this binding was later analyzed by autoradiography and Coomassie staining. In vitro serine phosphorylation of GST-IFNAR1 (analyzed by autoradiography or IB with pS535 antibody) by cell extracts or PKD preparations and tyrosine phosphorylation of GST-PKD2 by Tyk2 was carried out and analyzed as described elsewhere herein.
For other binding assays, the lysates from 293T cells (treated for various times with IFN-α, 2000 IU/mL) underwent two rounds of immunodepletion of CK1α as described elsewhere (Liu, et al., 2009, Mol Cell Biol 29(24):6401-12). GST-IFNAR1 proteins (wild type or S535,539A mutant that migrates slower on SDS-PAGE due to the presence of four additional amino acids in the linker (Liu et al., 2009, Cell Host Microbe 5(1):72-83)) were expressed and purified from bacterial cells using glutathione Sepharose. Purified bacterial proteins (2 μg) were incubated in the presence of CK1α-depleted cell lysates (5 μg), unlabeled ATP (0.5 mM) in total volume of 20 μL (containing 25 mM Tris-HCL pH 7.5, 5 mM MgCl2, 100 mM KCl, 1 mM EGTA, 1 mM Na3VO4, 0.1 mM DTT and 3.5% glycerol) for 30 min at 30° C. When indicated, the following kinase inhibitors were added to the reaction in I pi, of DMSO to the final concentration indicated: H89 (200 nM), BAY43-9006 (50 nM), Bis-I (25 nM), Gö6976 (25 nM), LY294002 (1.5 μM), SP600125 (100 nM), D4476 (400 nM), SB203580 (100 nM). The reactions were stopped by placing the tubes on ice and adding 150 μL of ice-cold binding buffer (PBS supplemented with 0.1% NP40 and 50 mM NaF) and incubated with glutathione Sepharose beads (20 μL) for 2 h at 4° C. The beads were then washed three times with 0.5 mL of binding buffer and incubated with 2 μL of in vitro translated and 35S-methionine-labeled13-Trcp2 for 1 h at 4° C. Beads were then washed three times with 1 mL of binding buffer, and the proteins were eluted using Laemmli buffer, resolved by SDS-PAGE, and analyzed by autoradiography and Coomassie staining.

[2] = system: IFNAR1 Ser535 phosphorylation; assay type: cell-based, human
protein kinase D (PKD) = conditions: literature (Gschwendt et al., 1996; Sharlow et al., 2008); cited from earlier work
[3] = system: IFNAR1 Ser535 phosphorylation; assay: IFN-α-induced Ser535 (degron) phosphorylation of IFNAR1 in cells, IP-immunoblot with anti-pS535; assay type: cell-based, human
Procedure: Immunoprecipitation and immunoblotting procedures are described elsewhere (Fuchs et al, 1999, Oncogene 18:2039-2046). Protein degradation was carried out by cycloheximide (CHX, used at 20 μg/ml) chase. IFNAR1 internalization assay was carried out using the Fluorescence-based assay as described elsewhere (Kumar et al., 2007, J Cell Biol 179:935-950). BAY 43-9006 was obtained as a gift. Recombinant human IFN-a2 (Roferon) was purchased from Roche. Other reagents or inhibitors were purchased from commercial vendors.
Antibodies against Flag, GST and j3-actin (Sigma), HA (12CA, Roche), CK1α, PICD1/2 (PKCμ), PKD3 (PKCν), Tyk2, intracellular domain of hIFNAR1 and PKR, (Santa Cruz), anti-pan-phospho-tyrosine (4G10), phospho-Stat1 and Stat1 (Cell signaling), phospho-S710 of PKD2 (Biosource), PKD2 (Bethyl Laboratories), mIFNAR1 (Leinco) and ubiquitin (FK2, Biomol) were purchased. AA3, GB8 and EAl2 antibodies which recognize endogenous IFNAR1 (Goldman et al., 1999) and antibodies against IFNAR1 phosphorylated on Ser535 (pS535; (Kumar et al., 2004, J Biol Chem 279:46614-46620)) were described previously. Secondary antibodies conjugated to horseradish peroxidase were purchased from Chemicon and LI-COR. Immunoprecipitation and immunoblotting procedures are described elsewhere (Fuchs et al, 1999, Oncogene 18:2039-2046). Protein degradation was carried out by cycloheximide (CHX) chase in the presence of CHX (20 μg/ml). Immunoblot detection and quantification were carried out using the LI-COR's Odyssey Infrared Imaging System.

PKD2 [4] = molecular target: T1, PKD2 (Homo sapiens, UniProt Q9BZL6); assay: In vitro phosphorylation of GST-IFNAR1 on Ser535 by purified GST-PKD2; assay type: biochemical; parameters: made in house; host or cells: 293T cells (human), transient expression, glutathione pull-down; conditions: Gö6976 20-200 nM
T1 sequence (Q9BZL6 1-878): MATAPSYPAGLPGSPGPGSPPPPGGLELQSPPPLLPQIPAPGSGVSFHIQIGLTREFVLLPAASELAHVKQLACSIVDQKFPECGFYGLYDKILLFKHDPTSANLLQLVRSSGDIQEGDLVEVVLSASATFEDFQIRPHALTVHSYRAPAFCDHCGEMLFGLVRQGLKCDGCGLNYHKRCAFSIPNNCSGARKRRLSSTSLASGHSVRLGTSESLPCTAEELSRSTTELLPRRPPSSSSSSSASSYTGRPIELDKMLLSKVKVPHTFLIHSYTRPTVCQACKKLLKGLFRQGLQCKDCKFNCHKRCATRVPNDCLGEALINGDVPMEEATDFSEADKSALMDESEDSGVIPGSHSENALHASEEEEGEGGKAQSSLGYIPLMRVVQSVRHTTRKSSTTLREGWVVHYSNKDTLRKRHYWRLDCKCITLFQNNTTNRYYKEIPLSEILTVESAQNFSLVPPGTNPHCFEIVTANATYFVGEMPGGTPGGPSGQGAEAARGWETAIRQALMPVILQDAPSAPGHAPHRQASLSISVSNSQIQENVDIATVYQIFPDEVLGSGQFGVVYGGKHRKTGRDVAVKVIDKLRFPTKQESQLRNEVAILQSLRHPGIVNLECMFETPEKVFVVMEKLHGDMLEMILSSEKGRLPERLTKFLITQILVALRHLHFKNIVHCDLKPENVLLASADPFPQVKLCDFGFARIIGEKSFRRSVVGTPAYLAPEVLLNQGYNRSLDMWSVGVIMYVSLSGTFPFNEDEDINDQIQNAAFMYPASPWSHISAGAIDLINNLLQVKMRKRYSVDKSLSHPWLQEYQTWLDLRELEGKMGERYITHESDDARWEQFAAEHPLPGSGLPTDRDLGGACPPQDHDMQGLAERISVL
Procedure: In vitro phosphorylation of GST-IFNAR1 by cell extracts or PKD preparations (via immunopurification or GST pulldown) was carried out in kinase buffer (50 mM Tris-HCl pH 7.4, 10 mM MgC12, and 2 mM DTT) with either 0.2 mM of unlabeled ATP or 10 μCi of γ-32P ATP for 20 min at 30° C. The products of this reaction were separated by SDS-PAGE and analyzed either by immunoblotting using anti-pS535 antibody or by autoradiography.

IFNAR1 [5] = system: IFNAR1
IFNAR1 [6] = assay type: cell-based, human
PKD2 [7] = molecular target: T1, PKD2; assay: Sangivamycin inhibition of PKD2 (FIGS. 37-38)
IFN signaling = assay: Sangivamycin effect on IFN signaling (FIGS. 37-38)
[8] = system: IFNAR1 Ser532 phosphorylation; assay type: cell-based, human
Stat1 = Stat1 tyrosine phosphorylation in response to IFN-α, immunoblot; assay type: cell-based, human
[9] = system: IFNAR1 Ser535 phosphorylation; assay type: cell-based, human; remark: listed apart in the source

CNC(=O)c1cc(Oc2ccc(NC(=O)Nc3ccc(Cl)c(C(F)(F)F)c3)cc2)ccn1 [BAY 43-9006]
recruitment of β-Trcp2 to GST-IFNAR1 (phosphorylation-binding assay) [1]: not inhibited

CN(C)CCCn1cc(C2=C(c3c[nH]c4ccccc34)C(=O)NC2=O)c2ccccc21 [Bis I, bisindolylmaleimide I]
recruitment of β-Trcp2 to GST-IFNAR1 (phosphorylation-binding assay) [1]: did not affect

NCCNS(=O)(=O)c1ccc(Cl)c2ccncc12 [CKI-7]
ligand-independent Ser535 phosphorylation of Flag-IFNAR1 [2]: decreased

NC(=O)c1ccc(-c2nc(-c3ccc4c(c3)OCCO4)c(-c3ccccn3)[nH]2)cc1 [D4476]
Ser535 phosphorylation of IFNAR1 in response to TG [2]: noticeably attenuated
TG-induced phosphorylation of eIF2α [2]: comparable induction
eIF2a phosphorylation in VSV-infected cells [2]: without affecting
virus-induced S535 phosphorylation of IFNAR1 [2]: markedly attenuated
virus-induced downregulation of IFNAR1 [2]: markedly attenuated
recruitment of β-Trcp2 to GST-IFNAR1 (phosphorylation-binding assay) [1]: noticeable inhibition

Cn1c2ccccc2c2c3c(c4c5ccccc5n(CCC#N)c4c21)CNC3=O [Gö6976]
inhibition of / specificity against PKD (protein kinase D (PKD)): shown to inhibit
induction of Ser535 phosphorylation of Flag-IFNAR1 by IFN-α ([3]; U3A cells stably expressing Flag-IFNAR1, inhibitor pre-treatment): noticeably decreased
basal Ser535 (degron) phosphorylation of overexpressed IFNAR1 ([3]; U3A cells stably expressing Flag-IFNAR1, no ligand): neither the PKD inhibitor Gö6976 nor siRNA against PKD2 decreases
recruitment of β-Trcp2 to GST-IFNAR1 (phosphorylation-binding assay) [1]: dramatic inhibition
in vitro phosphorylation of GST-IFNAR1 on Ser535 by GST-PKD2 (PKD2 [4]): decreased the efficacy of IFNAR1 phosphorylation in a dose dependent manner

O=S(=O)(NCCNC/C=C/c1ccc(Br)cc1)c1cccc2cnccc12 [H89]
recruitment of β-Trcp2 to GST-IFNAR1 (phosphorylation-binding assay) [1]: noticeable inhibition

C[S+]([O-])c1ccc(-c2nc(-c3ccncc3)c(-c3ccc(F)cc3)[nH]2)cc1 (centres unmarked) [SB203580]
recruitment of β-Trcp2 to GST-IFNAR1 (phosphorylation-binding assay) [1]: not inhibited

OO [hydrogen peroxide]
phosphorylation of endogenous IFNAR1 on Ser535 in the absence of IFN-α (IFNAR1 [5]; HeLa cells): noticeably stimulated

CN [methylamine HCl]
thapsigargin-induced decrease of IFNAR1 levels (IFNAR1 [6]; 293T cells pre-treated with MA 20 mM 1 h): prevented

NC(=O)c1cn([C@@H]2O[C@H](CO)[C@@H](O)[C@H]2O)c2ncnc(N)c12 [sangivamycin]
inhibition of PKD2 (PKD2 [7]): inhibits
efficiency of IFN signaling (IFN signaling): increases the efficiency of IFN signaling

C/C=C(/C)C(=O)O[C@H]1C(C)=C2[C@H]([C@@H]1OC(=O)CCCCCCC)[C@@](C)(OC(C)=O)C[C@H](OC(=O)CCC)[C@@]1(O)[C@H]2OC(=O)[C@@]1(C)O [thapsigargin]
activation of PERK assessed via phosphorylation of eIF2α ([2]; 293T cells, TG 1 μM 30 min): caused activation of PERK
half life of IFNAR1 (IFNAR1 [6]; 293T cells treated with cycloheximide, TG 1 μM): decreased
levels of IFNAR1 (IFNAR1 [6]; human 293T cells, TG 1 μM, within two hours, absence of IFN): decreased
ubiquitination of IFNAR1 (IFNAR1 [6]; human fibrosarcoma cells with WT or KR Tyk2 and 293T cells): induced
extent of ubiquitination of wild type IFNAR1 ([8]; Flag-IFNAR1 in 293T cells, TG 1 μM): noticeably increased
phosphorylation of endogenous IFNAR1 on Ser532 and Ser535 ([8]; HeLa cells, TG 1 μM 30 min): led to phosphorylation of endogenous IFNAR1 on both Ser532 and Ser535
tyrosine phosphorylation of Stat1 induced by IFN-α (Stat1; 293T cells pre-treated with TG 1 μM 4 h, IFNα 50 IU/ml 30 min): noticeably decreased
Ser535 phosphorylation of IFNAR1 in cells with wild type (WT) or catalytically inactive (KR) Tyk2 ([9]; 2fTGH-derived Tyk2 WT vs KR cells, 30 min): comparable levels
phosphorylation of endogenous IFNAR1 on Ser535 in the absence of IFN ([9]; 293T cells, TG 1 μM 30 min, DTT 5 mM 30 min): stimulated

VEGF
Stat1 phosphorylation in response to IFN-α (Stat1; human umbilical vein endothelial cells, VEGF 100 ng/ml 2 h, IFN-α 15 min): noticeably inhibits
phosphorylation of Flag-IFNAR1 on Ser535 (IFNAR1 [5]; U3A cells stably expressing Flag-IFNAR1, VEGF 100 ng/ml): increased
ubiquitination of IFNAR1 (IFNAR1 [5]; U3A-Flag-IFNAR1 cells, VEGF treatment): stimulated
